Test results taken from ChEMBL document CHEMBL1155652, “Synthesis of the marine sponge cycloheptapeptide phakellistatin 5(1)” (2000).
Where a SMILES comes first, the peptide text is derived from it. [ ]: non-standard residue; d: D form.

Experiments:
Assay type in all cases: functional
P388 = assay: Growth inhibition of mouse P388 cells
OVCAR-3 = assay: Growth inhibition of human OVCAR-3 cells
SF-295 = assay: Growth inhibition of human SF295 cells
NCI-H460 = assay: Growth inhibition of human NCI-H460 cells
DU-145 = assay: Growth inhibition of human DU145 cells
KM-20L2 = assay: Growth inhibition of human KM20L2 cells
SK-MEL-5 = assay: Growth inhibition of human SK-MEL-5 cells

Row | GI50 (P388) [µg/mL] | GI50 (OVCAR-3) [µg/mL] | GI50 (NCI-H460) [µg/mL] | GI50 (DU-145) [µg/mL] | GI50 (SK-MEL-5) [µg/mL] | Structure (SMILES) | GI50 (SF-295) [µg/mL] | GI50 (KM-20L2) [µg/mL]
1 | > 10 | > 10 | > 10 | > 10 | > 10 | CC[C@H](C)[C@@H]1NC(=O)[C@H](C)NC(=O)[C@H](CCSC)NC(=O)[C@H](C)NC(=O)[C@H](CC(N)=O)NC(=O)[C@H](Cc2ccccc2)NC(=O)[C@@H]2CCCN2C1=O [(S)-ASN-PHAKELLISTATIN 5] (cyclo(AIPFNAM)) | > 10 | > 10
2 | > 10 | > 10 | > 10 | > 10 | > 10 | CC[C@H](C)[C@@H]1NC(=O)[C@H](C)NC(=O)[C@H](CCSC)NC(=O)[C@H](C)NC(=O)[C@@H](CC(N)=O)NC(=O)[C@H](Cc2ccccc2)NC(=O)[C@@H]2CCCN2C1=O [(R)-ASN-PHAKELLISTATIN 5] (cyclo(AIPF[dN]AM)) | > 10 | > 10
